In series [1] the test system is Mus musculus. The series is described as follows: Antiosteoporosis activity against ovariectomized ICR mouse assessed as serum calcium level at 110.3 nmol/kg, po after 30 mins. It counts as functional.
For series [2], the system named is Mus musculus. Description: Antiosteoporosis activity against ovariectomized ICR mouse assessed as serum phosphorous level at 110.3 nmol/kg, po after 30 mins. The class given is functional.
Series [3] relates to Mus musculus. Description: Antiosteoporosis activity against ovariectomized ICR mouse assessed as serum ALP activity at 110.3 nmol/kg, po after 30 mins. It counts as functional.
Series [4] concerns Mus musculus. Description: Antiosteoporosis activity against ovariectomized ICR mouse assessed as dry femur weight at 110.3 nmol/kg, po after 30 mins. It counts as functional.
Series [5] has as its system Mus musculus. The series is described as follows: Antiosteoporosis activity against ovariectomized ICR mouse assessed as femur ash weight at 110.3 nmol/kg, po after 30 mins. The class given is functional.
Series [6] concerns Mus musculus. The series is described as follows: Antiosteoporosis activity against ovariectomized ICR mouse assessed as femur length at 110.3 nmol/kg, po after 30 mins. It counts as functional.
Series [7] concerns Mus musculus. Description: Antiosteoporosis activity against ovariectomized ICR mouse assessed as femur calcium content at 110.3 nmol/kg, po after 30 mins. The class given is functional.
For series [8], the system named is Mus musculus. The series is described as follows: Antiosteoporosis activity against ovariectomized ICR mouse assessed as femur phosphorous content at 110.3 nmol/kg, po after 30 mins. It counts as functional.
Series [9] relates to Mus musculus. The series is described as follows: Antiosteoporosis activity against ovariectomized ICR mouse assessed as mineral content at 110.3 nmol/kg, po after 30 mins. It counts as functional.
The test system of series [10] is Mus musculus. Description: Toxicity in ovariectomized ICR mouse assessed as effect on spleen weight at 110.3 nmol/kg, po after 4 weeks. The following applies: in vivo, 672 h. The class given is organism-based.
The test system of series [11] is Mus musculus. Description: Toxicity in ovariectomized ICR mouse assessed as effect on lung weight at 110.3 nmol/kg, po after 4 weeks. The conditions noted are these: in vivo, 672 h. It counts as organism-based.
The subject of series [12] is Mus musculus. Description: Toxicity in ovariectomized ICR mouse assessed as effect on kidney weight at 110.3 nmol/kg, po after 4 weeks. It counts as organism-based. The conditions noted are these: in vivo, 672 h.
Series [13] has as its system Mus musculus. The series is described as follows: Toxicity in ovariectomized ICR mouse assessed as effect on liver weight at 110.3 nmol/kg, po after 4 weeks. The class given is organism-based. The following applies: in vivo, 672 h.
Series [14] concerns Mus musculus. Description: Toxicity in ovariectomized ICR mouse assessed as effect on body weight at 110.3 nmol/kg, po after 4 weeks. The class given is organism-based. The conditions noted are these: in vivo, 672 h.
The test system of series [15] is Mus musculus. Description: Toxicity in ovariectomized ICR mouse assessed as tail bleeding time at 110.3 nmol/kg, po for 30 mins. It counts as organism-based. The conditions noted are these: in vivo, 0.5 h.
Series [16] concerns Mus musculus. Description: Toxicity in ovariectomized ICR mouse assessed as tail bleeding time at 110.3 nmol/kg, po for 90 mins. The class given is organism-based. The following applies: in vivo, 1.5 h.
Series [17] has as its system Mus musculus. The series is described as follows: Toxicity in ovariectomized ICR mouse assessed as change in uterine weight at 110.3 nmol/kg, po after 4 weeks. The following applies: in vivo, 672 h. It counts as organism-based.

Numbered stars: 1 amine (or outer) side, 2 acyl side, 3 side chain; on linkers, the order of the positions; unused ones are H or OH. Bridge positions count the residues as written; N and C are the ends. Peptide text beside a SMILES is read from it. I, II: the chains in the order shown. * marks the point of attachment. Estradiol(3-OCH2CO,17-OSuc) = C[C@]12CC[C@@H]3c4ccc(OCC(=O)[*:1])cc4CC[C@H]3[C@@H]1CC[C@@H]2OC(=O)CCC(=O)[*:2]; Succinyl(O17-estradiol) = C[C@]12CC[C@@H]3c4ccc(O)cc4CC[C@H]3[C@@H]1CC[C@@H]2OC(=O)CCC(=O)*; Acetyl(estradiol-3-yloxy) = C[C@]12CC[C@@H]3c4ccc(OCC(=O)*)cc4CC[C@H]3[C@@H]1CC[C@@H]2O; X1 = C[C@]12CC[C@@H]3c4ccc(OCC(=O)*)cc4CC[C@H]3[C@@H]1CCC2=O

`C[C@]12CC[C@@H]3c4ccc(OCC(=O)N[C@@H](CCCNC(=N)N)C(=O)NCC(=O)N[C@@H](CC(=O)O)C(=O)N[C@@H](Cc5ccccc5)C(=O)O)cc4CC[C@H]3[C@@H]1CC[C@@H]2OC(=O)CCC(=O)N[C@@H](CCCNC(=N)N)C(=O)NCC(=O)N[C@@H](CC(=O)O)C(=O)N[C@@H](Cc1ccccc1)C(=O)O` (I: RGDF-OH / II: RGDF-OH; linker I:N-II:N via Estradiol(3-OCH2CO,17-OSuc)): the Activity is 3.19 mM in series [1]; 3.09 mM in series [2]; 15.8 U/L in [3]; 55.46 mg in series [4]; 35.22 mg in series [5]; 1.62 cm in [6]. In addition, the Activity in [7] is given as 61.17%; in series [8] it was 21.21%; in [9], 0.61%; in [10] it was “Non-toxic”; in [11], “Non-toxic”; in series [12], “Non-toxic”. In addition, the Activity result in [13] was “Non-toxic”; in series [14], “Non-toxic”; in [15], 522 s; in series [16], 524 s; in [17] it was 0.05 g.

Consider `C[C@]12CC[C@@H]3c4ccc(OCC(=O)N[C@@H](CCCNC(=N)N)C(=O)NCC(=O)N[C@@H](CC(=O)O)C(=O)N[C@@H](Cc5ccccc5)C(=O)O)cc4CC[C@H]3[C@@H]1CCC2=O` (X1-RGDF-OH), for which the Activity in series [1] came out at 3.44 mM; in series [2], 3.17 mM; in [3] it was 16.42 U/L; in [4], 53.99 mg; in series [5], 33.85 mg; in series [6] it was 1.65 cm. The Activity in series [7] was found to be 56.96%; in [8] it was 20.32%; in series [9], 0.59%; in [15] it was 581 s; in series [16], 576 s; in series [17] it was 0.06 g.

For `C[C@]12CC[C@@H]3c4ccc(OCC(=O)N[C@@H](CCCNC(=N)N)C(=O)NCC(=O)N[C@@H](CC(=O)O)C(=O)N[C@@H](CO)C(=O)O)cc4CC[C@H]3[C@@H]1CCC2=O` (X1-RGDS-OH), the Activity in series [1] is 3.33 mM; in [2], 2.98 mM; in series [3], 16.62 U/L; in [4], 54.29 mg; in series [5], 34.38 mg; in series [6], 1.65 cm. For the same compound, the Activity in [7] was found to be 57.76%; in series [8] it was 20.44%; in series [9] it was 0.6%; in series [15], 579 s; in [16], 568 s; in [17], 0.069 g.

As for `CC(C)[C@H](NC(=O)[C@H](CC(=O)O)NC(=O)CNC(=O)[C@H](CCCNC(=N)N)NC(=O)COc1ccc2c(c1)CC[C@@H]1[C@@H]2CC[C@]2(C)C(=O)CC[C@@H]12)C(=O)O` (X1-RGDV-OH), the Activity was determined as 3.33 mM in series [1]; 2.96 mM in [2]; 17.42 U/L in series [3]; 54.12 mg in [4]; 33.99 mg in series [5]; 1.66 cm in [6]. Moreover, the Activity stood at 57.24% in [7]; 20.08% in series [8]; 0.61% in series [9]; 563 s in series [15]; 571 s in series [16]; 0.066 g in series [17].

In the case of `C[C@]12CC[C@@H]3c4ccc(OCC(=O)N[C@@H](CCCNC(=N)N)C(=O)NCC(=O)N[C@@H](CC(=O)O)C(=O)N[C@@H](Cc5ccccc5)C(=O)O)cc4CC[C@H]3[C@@H]1CC[C@@H]2O` ({Acetyl(estradiol-3-yloxy)}-RGDF-OH), the Activity in series [1] turned out to be 3.34 mM; in series [3], 25.42 U/L; in [5], 33.99 mg; in series [6], 1.67 cm; in series [9], 0.6%; in series [15], 557 s. In addition, the Activity in [16] is listed as 560 s; in [17], 0.067 g.

In the case of `C[C@]12CC[C@@H]3c4ccc(OCC(=O)N[C@@H](CCCNC(=N)N)C(=O)NCC(=O)N[C@@H](CC(=O)O)C(=O)N[C@@H](CO)C(=O)O)cc4CC[C@H]3[C@@H]1CC[C@@H]2O` ({Acetyl(estradiol-3-yloxy)}-RGDS-OH), the Activity in series [1] was found to be 3.33 mM; in series [3], 26.62 U/L; in [6], 1.65 cm; in series [9], 0.6%; in [15], 582 s; in series [16], 577 s. Further, in series [17], the Activity is listed as 0.064 g.

`CC(C)[C@H](NC(=O)[C@H](CC(=O)O)NC(=O)CNC(=O)[C@H](CCCNC(=N)N)NC(=O)COc1ccc2c(c1)CC[C@@H]1[C@@H]2CC[C@]2(C)[C@@H](O)CC[C@@H]12)C(=O)O` ({Acetyl(estradiol-3-yloxy)}-RGDV-OH): the Activity in series [1] amounted to 3.32 mM; in series [3], 26.01 U/L; in series [5], 34.29 mg; in [9], 0.61%; in [15], 569 s; in series [16] it was 577 s. Moreover, the Activity in series [17] is given as 0.064 g.

Consider `C[C@]12CC[C@@H]3c4ccc(O)cc4CC[C@H]3[C@@H]1CC[C@@H]2OC(=O)CCC(=O)N[C@@H](CCCNC(=N)N)C(=O)NCC(=O)N[C@@H](CC(=O)O)C(=O)N[C@@H](Cc1ccccc1)C(=O)O` ({Succinyl(O17-estradiol)}-RGDF-OH), for which the Activity in series [1] is on record as 3.34 mM; in series [3], 23.18 U/L; in series [5] it was 34.87 mg; in [7], 58.06%; in series [9], 0.61%; in series [15], 576 s. In addition, the Activity in series [16] came out at 568 s; in [17], 0.06 g.

Regarding `C[C@]12CC[C@@H]3c4ccc(O)cc4CC[C@H]3[C@@H]1CC[C@@H]2OC(=O)CCC(=O)N[C@@H](CCCNC(=N)N)C(=O)NCC(=O)N[C@@H](CC(=O)O)C(=O)N[C@@H](CO)C(=O)O` ({Succinyl(O17-estradiol)}-RGDS-OH), the Activity in series [1] is 3.35 mM; in series [3] it was 23.93 U/L; in series [4], 53.98 mg; in series [6] it was 1.66 cm; in series [7] it was 59.14%; in series [9], 0.6%. In addition, the Activity in series [15] is recorded as 575 s; in series [16], 561 s; in series [17] it was 0.063 g.

As to `CC(C)[C@H](NC(=O)[C@H](CC(=O)O)NC(=O)CNC(=O)[C@H](CCCNC(=N)N)NC(=O)CCC(=O)O[C@H]1CC[C@H]2[C@@H]3CCc4cc(O)ccc4[C@H]3CC[C@]12C)C(=O)O` ({Succinyl(O17-estradiol)}-RGDV-OH), the Activity is listed as 3.36 mM in [1]; 22.96 U/L in [3]; 34.7 mg in series [5]; 1.67 cm in series [6]; 0.61% in [9]; 551 s in series [15]. Moreover, the Activity was determined as 560 s in [16] and 0.064 g in series [17].

Consider `C[C@]12CC[C@@H]3c4ccc(O)cc4CC[C@H]3[C@@H]1CC[C@@H]2O` [ESTRADIOL], for which the Activity in series [1] stood at 3.34 mM; in series [3], 27.22 U/L; in series [6], 1.64 cm; in series [9], 0.61%; in series [15], 417 s; in [16], 441 s. Besides, in series [17], the Activity came out at 0.108 g.

For `C[C@]12CC[C@@H]3c4ccc(O)cc4CC[C@H]3[C@@H]1CCC2=O` [ESTRONE], the Activity in series [1] was determined as 3.35 mM; in series [2], 3.13 mM; in series [3] it was 27.97 U/L; in [4], 53.03 mg; in series [5], 32.08 mg; in series [6], 1.65 cm. For the same compound, the Activity in series [7] is on record as 56.2%; in series [8] it was 19.11%; in [9] it was 0.61%; in series [15], 411 s; in series [16], 433 s; in [17], 0.114 g.
